This note sets out measurements from BindingDB's records for doi:10.1021/jm800662z (Johnson & Johnson Pharmaceutical, 2008).

This assay addresses T1, Tyrosine-protein kinase JAK3 (Homo sapiens, UniProt P52333).
T1 sequence (P52333 whole entry): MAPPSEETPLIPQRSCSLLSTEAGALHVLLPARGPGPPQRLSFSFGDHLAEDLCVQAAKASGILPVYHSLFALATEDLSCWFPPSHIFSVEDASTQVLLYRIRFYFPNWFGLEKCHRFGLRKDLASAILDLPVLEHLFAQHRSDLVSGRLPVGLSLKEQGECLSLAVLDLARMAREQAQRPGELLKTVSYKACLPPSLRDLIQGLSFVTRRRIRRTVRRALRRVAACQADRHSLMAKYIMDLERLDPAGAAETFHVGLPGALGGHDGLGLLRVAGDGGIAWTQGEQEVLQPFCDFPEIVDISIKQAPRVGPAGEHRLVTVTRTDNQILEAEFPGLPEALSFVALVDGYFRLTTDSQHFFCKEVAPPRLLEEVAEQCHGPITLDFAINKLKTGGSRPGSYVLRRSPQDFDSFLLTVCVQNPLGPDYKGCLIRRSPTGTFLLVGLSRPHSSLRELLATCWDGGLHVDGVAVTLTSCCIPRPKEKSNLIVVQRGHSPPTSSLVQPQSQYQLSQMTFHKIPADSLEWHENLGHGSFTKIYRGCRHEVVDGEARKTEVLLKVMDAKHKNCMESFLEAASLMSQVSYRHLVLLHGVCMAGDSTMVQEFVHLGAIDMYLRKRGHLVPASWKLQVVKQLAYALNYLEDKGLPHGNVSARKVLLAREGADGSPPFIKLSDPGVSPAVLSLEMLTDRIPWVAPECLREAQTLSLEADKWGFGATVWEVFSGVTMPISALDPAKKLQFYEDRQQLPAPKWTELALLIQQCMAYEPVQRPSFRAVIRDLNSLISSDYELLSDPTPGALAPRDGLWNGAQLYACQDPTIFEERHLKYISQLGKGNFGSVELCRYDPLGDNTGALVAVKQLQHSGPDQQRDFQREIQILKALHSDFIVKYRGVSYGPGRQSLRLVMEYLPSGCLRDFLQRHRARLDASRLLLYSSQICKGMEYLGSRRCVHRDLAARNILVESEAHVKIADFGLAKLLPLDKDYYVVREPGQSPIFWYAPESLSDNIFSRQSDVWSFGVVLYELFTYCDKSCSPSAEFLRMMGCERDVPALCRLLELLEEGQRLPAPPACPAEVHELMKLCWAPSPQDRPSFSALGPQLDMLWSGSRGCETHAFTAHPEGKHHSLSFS
The experiment in a line: JAK3 Inhibition Assay. As to conditions: pH 7.5; 22 °C. On the procedure: An ELISA assay was used to determine the ability of inhibitor to inhibit JAK3 […] activity. The compounds were incubated with enzyme, 10 uM ATP, and biotinylated peptide substrate. Phosphorylated tyrosine was then detected by sequential incubation with anti-phosphotyrosine antibody.

Take `O=C1c2ccccc2-c2n[nH]c3cccc1c23`: half-maximal inhibition (IC50) required 0.957 µM.
